The source of these data is US20010053797A1 (priority 1998, published 2001).

Data set [1] deals with murine cortical cell cultures (neurons), NMDA receptor. Briefly: NMDA neurotoxicity in murine cortical cell cultures, medium LDH. The following applies: for effect on NMDA neurotoxicity (neuronal death, medium LDH): compound added with low micromolar NMDA, 20-25 h; for effect on potentiation of NMDA neurotoxicity by mercaptoethanol: NMDA plus 1 mM mercaptoethanol plus equimolar compound. The format is cell-based, Swiss Webster mice. The procedure:
Cultures were incubated in 5% CO2 at 37° C.
Experiments were conducted at 13-15 days in vitro.

Data set [2] concerns cortical neurons and glia. The experiment in a line: Chemical hypoxia (azide) and glucose deprivation in cortical cell cultures, medium LDH. The format is cell-based, Swiss Webster mice. The following applies: 3 mM azide 30 min with compound; LDH 21-25 h later. The procedure:
Primary cultures containing both cortical neurons and glia were prepared from gravid Swiss Webster mice as previously described. (Regan , R. F. and Choi, D. W., The effect of NMDA, AMPA/kainate, and calcium channel antagonists on traumatic cortical neuronal injury in culture, Brain Res, 633: 236-242, 1994). Plating medium consisted of Eagle's minimal essential medium (MEM), 5% equine serum, 5% fetal bovine serum, 2 mM glutamine, and 23 mM glucose. Cultures were incubated in 5% CO2 at 37° C. Two-thirds of the culture medium was exchanged twice weekly with MEM containing 10% equine serum, 2 mM glutamine, and 23 mM glucose. Glial cell division was inhibited at 4-7 days in vitro with 10^−5 M cytosine arabinoside.
Chemical hypoxia was induced with 3 mM azide, which unlike cyanide is not volatile and has little effect on copper-zinc and manganese superoxide dismutases at low millimolar concentrations. (Misra, H. P. and Fridovich, I., Inhibition of superoxide dismutases by azide, Arch Biochem Biophys 189: 317-322, 1978). Experiments were conducted at 13-16 days in vitro in a glucose-free buffer containing 116 mM NaCl, 5.4 mM KCl, 1.8 mM CaCl2, 1 mM NaH2PO4, 26.2 mM NaHCO3, 0.8 mM MgSO4, and amino acids (MEM amino acids, Sigma Chemical Co., St. Louis, Mo., U.S.A.). After incubation for 30-90 min at 37° C. in 5% CO2, cultures were washed into MEM containing 10 mM glucose and were returned to the incubator.
Cell death was estimated 21-25 h after azide exposure by inspection under phase-contrast microscopy, and was quantified by assaying lactate dehydrogenase (LDH) activity in the medium, as previously described. (Regan, R. F. and Panter, S. S., Traumatic neuronal injury in cortical cell culture is attenuated by 21-aminosteroids, Brain Res, 682: 144-150, 1995). Medium LDH in this culture system is an accurate marker of neuronal death that correlates well with cell counts. (Koh, J. Y. and Choi, D. W., Vulnerability of cultured cortical neurons to damage by excitotoxins: Differential susceptibility of neurons containing NADPH-diaphorase, J Neurosci 8: 2153-2163, 1988). […] (Koh, J. Y. and Choi, D. W., 1988). The LDH activity in the medium of sister cultures exposed to sham wash alone was subtracted from all values to obtain the LDH signal associated specifically with neurotoxin exposure.
Data were analyzed by one-way analysis of variance. Differences between groups and a single mean were assessed with the Dunnett multiple comparisons test; when groups were compared to more than one mean, the Tukey-Kramer post hoc test was used.

Data set [3] has as its system cortical neurons and glia. The following applies: 10-100 μM, 30 min in MEM without azide.
The test system of data set [4] is murine cortical cell cultures (neurons), AMPA and kainate receptors. The settings on record: listed as reduced glutathione.
Description: After halothane anesthesia and cervical dislocation, cortical hemispheres were removed and incubated in 0.075% (wt/vol) acetylated trypsin (Sigma T-6763) for 1 h at 37° C. Tissue was dissociated by multiple passages through a narrow bore (flamed) Pasteur pipette, and the cell suspension was plated on confluent glial cultures at a density of 2.25-2.5 hemispheres per 24 well plate.
Experiments were conducted at 13-15 days in vitro. Cultures were exposed to excitatory amino acids in serum-free MEM containing 10 mM glucose.
Since astrocytes are not vulnerable to excitotoxic injury in this culture system (Choi D. W., Maulucci-Gedde M. and Kriegstein A. R. Glutamate neurotoxicity in cortical cell culture. J Neurosci 7: 357-368, 1987), the contribution of astrocytic LDH to the LDH signal is negligible.
Differences between groups were assessed with the Tukey-Kramer or Dunnett post hoc tests.
Another data set deals with T1, native NMDA receptor (Rattus norvegicus, UniProt P35439).
T1 construct: host or cells: cultured forebrain, cortical or retinal neurons (endogenous receptor)
The following applies: cited from earlier work.

Data set [5] relates to NMDA receptor-mediated neurotoxicity. The settings on record: cited from earlier work.
In data set [6] the test system is NR1-NR2B, -NR2C, or -NR2D receptors. The following applies: millimolar concentrations of GSH; cited from earlier work.
The subject of data set [7] is cultured cerebellar granule cells. The following applies: cited from earlier work.

“Also recorded” adds a separate entry of the source.

Consider `OCCS` [mercaptoethanol], for which the “effect on NMDA neurotoxicity (neuronal death, medium LDH)” value (from here on “effect … (neuronal death, medium LDH)”) in data set [1] is given as “markedly enhanced”; in data set [1] (listed as Mercaptoethanol), “increased NMDA neurotoxicity to a degree comparable to that of glutathione”. Further, the “effect on azide neurotoxicity in glucose-free buffer (neuronal death)” value in data set [2] is reported as “potentiate; also recorded: concentration-toxicity profile that was similar to GSH”. Also, the “toxicity of compound alone” value in data set [3] is “nontoxic”.
As for `N[C@@H](CCC(=O)N[C@@H](CS)C(=O)NCC(=O)O)C(=O)O` [GSH, glutathione], the LDH release in data set [1] (8 μM NMDA plus GSH, scaled to 300 μM NMDA (=100)) is recorded as 61.09±3.83%. Moreover, the “effect on neuronal death at high NMDA concentration” value in data set [1] (24 μM NMDA) was “not altered”. Besides, in data set [1], the “effect on potentiation of NMDA neurotoxicity by mercaptoethanol” value is given as “did not further increase neuronal death; also recorded: tended to inhibit the effect of mercaptoethanol; also recorded: did not further enhance NMDA neurotoxicity” and the “effect … (neuronal death, medium LDH)” value is listed as “selectively potentiates NMDA neurotoxicity; also recorded: markedly potentiated; also recorded: specifically potentiated NMDA neurotoxicity; also recorded: selectively potentiate”. Moreover, in data set [1] (listed as reduced glutathione), the “effect on potentiation of NMDA neurotoxicity by mercaptoethanol” value is listed as “did not further increase NMDA-induced neuronal death” and the “effect … (neuronal death, medium LDH)” value is listed as “markedly enhanced; also recorded: markedly enhance the vulnerability”. Further, the “effect … (neuronal death, medium LDH)” value in data set [1] (listed as glutathione) is “marked potentiation”. In addition, in data set [4], the “effect on neurotoxicity of kainic acid” value is on record as “unaffected”. Moreover, the “effect on native NMDA receptor responses” value at native NMDA receptor was “no effect”. Further, the “effect on NMDA neurotoxicity” value in data set [5] was “attenuated NMDA neurotoxicity”. Also, the “effect on responses to glutamate (whole cell currents)” value in data set [6] is recorded as “not”. For the same molecule, in data set [7], the “basal 45Ca2+ influx” value is “did not alter”; the “glutamate and NMDA-induced calcium influx” value is reported as “increased”.
